Reference: patent US8101608B2, “Compounds and compositions as protein kinase inhibitors” (IRM LLC, a Delware Limited Corporation, priority 2004, dated 2012)
pIC50: −log10 of the molar value.

Assays:
c-RAF = target: T1, c-RAF (Homo sapiens, UniProt P04049); experiment: Kinase inhibition, Upstate KinaseProfiler radio-enzymatic filter binding assay; format: biochemical
T1 construct: "active kinase (0.001-0.01 Units); fused on or other part: Probably an N-terminal GST tag (vendor's product)
Method: (§1) Percentage inhibition is calculated for each reaction.

Aurora-A = target: T2, Aurora-A (Homo sapiens, UniProt O14965); experiment: as above; format: biochemical
T2 construct: purchased Upstate (KinaseProfiler panel)
T2 sequence (O14965 1-403): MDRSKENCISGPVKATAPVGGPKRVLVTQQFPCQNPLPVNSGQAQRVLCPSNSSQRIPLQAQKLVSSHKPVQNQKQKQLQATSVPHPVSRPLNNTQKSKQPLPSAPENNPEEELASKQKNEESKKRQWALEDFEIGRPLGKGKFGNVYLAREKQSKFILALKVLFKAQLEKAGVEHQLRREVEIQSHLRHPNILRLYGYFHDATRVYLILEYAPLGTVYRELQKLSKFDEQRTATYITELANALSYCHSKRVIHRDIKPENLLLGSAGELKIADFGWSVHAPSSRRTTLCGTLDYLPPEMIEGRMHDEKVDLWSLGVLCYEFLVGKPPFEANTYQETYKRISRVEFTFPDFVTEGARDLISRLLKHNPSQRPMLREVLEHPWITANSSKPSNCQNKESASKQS
Method: as §1

trkC = target: T3, trkC (Homo sapiens, UniProt Q16288); experiment: Inhibition of cellular ETV6-NTRK3 dependent proliferation (Ba/F3 EN cells); format: cell-based, murine; details: MTT, read-out: IC50 for TrkC
T3 construct: fused on or other part: P41212 (Transcription factor ETV6)
Method: The murine cell line used is the Ba/F3 hematopoietic progenitor cell line transformed with ETV6-NTRK3 cDNA (Ba/13 EN). These cells are maintained in RPMI/10% fetal calf serum (RPMI/FCS) supplemented with penicillin 50 μg/mL, streptomycin 50 μg/mL and L-glutamine […]. Untransformed Ba/F3 cells are similarly maintained with the addition of 10% of WEHI conditioned medium as a source of IL3.

T1 sequence (P04049 whole entry Y340D/Y341D, form open, the tested form may be a part): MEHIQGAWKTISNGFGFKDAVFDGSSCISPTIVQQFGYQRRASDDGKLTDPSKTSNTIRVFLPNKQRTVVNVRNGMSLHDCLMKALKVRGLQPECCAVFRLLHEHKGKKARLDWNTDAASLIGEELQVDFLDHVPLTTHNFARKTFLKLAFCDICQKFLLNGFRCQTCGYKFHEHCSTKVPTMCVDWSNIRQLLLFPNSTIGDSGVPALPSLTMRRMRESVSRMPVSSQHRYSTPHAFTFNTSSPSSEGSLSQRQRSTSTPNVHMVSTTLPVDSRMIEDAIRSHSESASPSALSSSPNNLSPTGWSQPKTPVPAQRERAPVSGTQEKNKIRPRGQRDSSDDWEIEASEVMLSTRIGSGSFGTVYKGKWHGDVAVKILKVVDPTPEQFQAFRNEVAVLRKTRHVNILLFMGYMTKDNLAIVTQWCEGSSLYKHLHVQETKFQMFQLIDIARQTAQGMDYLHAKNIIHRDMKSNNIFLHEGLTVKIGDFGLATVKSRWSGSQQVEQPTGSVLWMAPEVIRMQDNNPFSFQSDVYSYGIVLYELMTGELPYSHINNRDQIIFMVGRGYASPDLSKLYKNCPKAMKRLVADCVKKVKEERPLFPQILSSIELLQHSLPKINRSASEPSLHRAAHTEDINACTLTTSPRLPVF
T3 sequence (Q16288 whole entry, change not shown, the tested form may be a part): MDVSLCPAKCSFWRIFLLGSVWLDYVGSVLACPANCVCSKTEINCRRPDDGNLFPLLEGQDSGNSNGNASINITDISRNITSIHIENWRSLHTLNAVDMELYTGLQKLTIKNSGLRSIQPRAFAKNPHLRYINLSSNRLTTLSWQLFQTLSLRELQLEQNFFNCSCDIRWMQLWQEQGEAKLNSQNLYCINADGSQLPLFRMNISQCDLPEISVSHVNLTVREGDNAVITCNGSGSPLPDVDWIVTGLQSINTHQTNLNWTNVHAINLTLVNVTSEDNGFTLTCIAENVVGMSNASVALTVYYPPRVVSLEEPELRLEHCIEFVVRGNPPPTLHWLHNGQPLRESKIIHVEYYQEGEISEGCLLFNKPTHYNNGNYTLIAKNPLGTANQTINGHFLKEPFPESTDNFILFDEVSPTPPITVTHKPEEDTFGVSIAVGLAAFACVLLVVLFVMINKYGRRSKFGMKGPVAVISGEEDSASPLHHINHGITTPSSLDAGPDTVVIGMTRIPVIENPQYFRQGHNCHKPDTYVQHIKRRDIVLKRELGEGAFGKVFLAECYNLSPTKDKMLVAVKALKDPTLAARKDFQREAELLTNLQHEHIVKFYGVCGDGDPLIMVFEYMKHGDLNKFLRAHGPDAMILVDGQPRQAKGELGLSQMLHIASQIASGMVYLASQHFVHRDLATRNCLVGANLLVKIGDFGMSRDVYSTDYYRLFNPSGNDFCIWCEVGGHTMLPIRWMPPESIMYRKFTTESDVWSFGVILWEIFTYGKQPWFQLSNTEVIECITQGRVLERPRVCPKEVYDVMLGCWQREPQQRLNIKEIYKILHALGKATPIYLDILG

## Cc1cn(-c2cc(C(=O)Nc3cccc(Nc4ccc5c(c4)NC(=O)/C5=C/c4ccc[nH]4)c3)cc(C(F)(F)F)c2)cn1 [Example 1]
c-RAF
  pIC50: 6.94
Aurora-A
  pIC50: 7.82
trkC
  GI50: 16.7 nM
